The record followed here is US5290776A, “Azole derivatives” (Imperial Chemical Industries, PLC, priority 1991, dated 1994).

The IC50 is the concentration that inhibits the measured activity by half.

Test [1] has as its target T1, adenosine receptor known as A1 (Cavia porcellus, UniProt P47745).
T1 construct: Atrial pairs are obtained from guinea-pigs; from tissue; host or cells: guinea-pig atrial pairs (Dunkin Hartley)
T1 sequence (P47745 1-326): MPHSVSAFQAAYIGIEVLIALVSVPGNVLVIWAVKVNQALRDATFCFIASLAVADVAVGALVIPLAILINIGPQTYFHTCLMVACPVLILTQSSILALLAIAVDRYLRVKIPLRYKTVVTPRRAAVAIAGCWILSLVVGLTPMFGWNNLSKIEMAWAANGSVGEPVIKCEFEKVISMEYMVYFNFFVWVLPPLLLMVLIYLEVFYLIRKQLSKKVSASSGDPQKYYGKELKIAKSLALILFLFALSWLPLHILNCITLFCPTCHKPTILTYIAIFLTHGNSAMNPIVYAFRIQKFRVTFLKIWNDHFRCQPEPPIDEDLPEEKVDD
Briefly: Guinea-pig Atrial Bradycardic Test. It counts as cell-based. As to conditions: antagonism of bradycardic effect of 2-chloroadenosine, beating guinea-pig atrial preparation; read-out: pA2 (converted). As for the experimental part:
(c) Guinea-pig Atrial Bradycardic Test
The spontaneously beating atria are then placed under a resting tension of 1 g and allowed to equilibrate for 50 minutes with continuous overflow. Overflow is then stopped and adenosine deaminase (1 Unit/ml) added to prevent the accumulation of endogenously produced adenosine. […] After washout during 30 minutes, adenosine deaminase is readministered to the bath which is allowed to equilibrate for 15 minutes. A 10^-5 M solution of the test compound in DMSO is then added to the bath which is left to incubate for 30 minutes. Any effect on the beating rate due to the test compound is noted before the dose response curve to 2-chloroadenosine is repeated. Compounds which are adenosine antagonists attenuate the 2-chloroadenosine response.
Test compounds are assessed by comparing dose response curves to 2-chloroadenosine alone with those obtained in the presence of the compound. Competitive adenosine antagonists produce a parallel shift in the 2-chloroadenosine dose response curve. […] The pA2 is then obtained in an analogous manner to that referred to in (b) above.

The next test addresses T2, A2 Adenosine receptor (Rattus norvegicus, UniProt P30543).
T2 construct: membrane preparations derived from the rat phaeochromocytoma cell line PC 12; host or cells: PC 12 (rat phaeochromocytoma), membranes
Briefly: A2 Adenosine receptor affinity test ([3H]-NECA displacement, PC12 membranes). It is filed as binding. Conditions: displacement of [3H]-NECA from rat PC12 cell membranes. As for the experimental part: The membrane preparation is obtained as follows: Frozen pellets of PC12 cells are washed twice with ice cold, buffered, physiological saline and the cells recovered by centrifugation (1500 G) at 3° C. The separated cells are then suspended in hypotonic solution (distilled water), allowed to stand on ice for 30 minutes and are then carefully homogenized using a standard high-speed homogeniser with periodic ice-cooling to obtain a fine suspension. […] The mixture is then incubated at 37° C. After 20 minutes, the reaction is terminated by dilution with ice-cold buffer and transfer onto ice. The material obtained containing the cell membranes is recovered by centrifugation and washed by resuspension in buffer and recentrifugation. The pellet produced is then resuspended in ice-cold buffer using a hand-driven homogenizer. The resultant membrane suspension is frozen and stored under liquid nitrogen until required.
After incubation, the samples are rapidly filtered over glass-fibre mats and the filter mats are washed to remove non-receptor-bound radioligand. Receptor-bound radioligand entrapped on the filter mats is then determined by liquid scintillation counting. […] The specific binding (defined as the difference between the total binding and the non-specific binding) in the presence of the particular test compound is determined and compared with the control value.

Test [2] concerns adenosine receptor known as A2. Briefly: Guinea-pig Aortic Constriction Test. It is filed as cell-based. Conditions: antagonism of adenosine attenuation of phenylephrine induced constriction, guinea-pig aortic ring. From the text:
(b) Guinea-pig Aortic Constriction Test
This test has been described by Collis et al. (British J. Pharmacology, 1989, 97, 1274-1278) and involves the assessment of the ability of a test compound to antagonise the attenuatory effect of adenosine on phenylephrine induced constriction of a guinea-pig aortic ring preparation, an effect mediated via the adenosine receptor known as A2.
The aortic ring preparation is obtained as follows:
Sections (3-5 mm) of guinea pig thoracic aorta (from Dunkin Hartley strain, 250-400 g males) are mounted in organ baths containing oxygenated Krebs solution (95% O2 : 5% CO2) at 37° C. [The nucleoside transport inhibitor, dipyridamole (10 μM) is present in the Krebs solution]. The isometric tension development is recorded and the tissue placed under a resting tension of 1 g and allowed to equilibrate for 1 hour. […] Adenosine is next added cumulatively (10^-7 M to 10^-3 M) and the evoked relaxation is measured. […]
Test compounds are assessed by plotting the percentage relaxation observed against the logarithm of the adenosine concentration, competitive adenosine antagonism producing a parallel shift in the standard adenosine concentration/relaxation (dose response) curve. […] The pA2 value, which is an estimate of the concentration of antagonist to give a dose ratio of 2, may also be calculated using a standard computation technique.

The subject of test [3] is vasodilation response during twitch contraction of skeletal muscle. Briefly: Anaesthetised cat exercise hyperaemia test. As to conditions: 10 mg.kg^-1. It is filed as in vivo. Here is the method: (f) Anaesthetised cat exercise hyperaemia test
This test involves assessment of the effect of a test compound to antagonise the vasodilation response which occurs during twitch contraction of skeletal muscle. The vasodilation is mediated partly by the release of endogenous adenosine from the contracting skeletal muscle.
Cats (2.4-3.6 kg) are anaesthetised with sodium pentobarbitone (50 mg.kg^-1 ip). The following blood vessels are catheterized: left jugular vein (for infusion of anaesthetic, at approximately […] as a 6 mg.ml^-1 solution in isotonic saline), right external jugular vein (for administration of drugs and test compounds), right common carotid artery (for measurement of systemic arterial blood pressure and pulse rate) and right brachial artery (for withdrawal of blood).
Blood flow to the left hind limb is measured with an electromagnetic flow probe around the left external iliac artery. The whole of the left hind limb is made to contract at 3 Hz for 20 minutes duration by stimulating the sciatic and femoral nerves. Active tension produced by the extensor digitorum longus and peroneous longus muscles is measured isometrically with a force transducer. Exercise is repeated twice within the same animal, in either the absence or presence of the test compound. Test compounds are assessed for their ability to reduce the vasodilation during skeletal muscle contraction.

T2 sequence (P30543 whole entry): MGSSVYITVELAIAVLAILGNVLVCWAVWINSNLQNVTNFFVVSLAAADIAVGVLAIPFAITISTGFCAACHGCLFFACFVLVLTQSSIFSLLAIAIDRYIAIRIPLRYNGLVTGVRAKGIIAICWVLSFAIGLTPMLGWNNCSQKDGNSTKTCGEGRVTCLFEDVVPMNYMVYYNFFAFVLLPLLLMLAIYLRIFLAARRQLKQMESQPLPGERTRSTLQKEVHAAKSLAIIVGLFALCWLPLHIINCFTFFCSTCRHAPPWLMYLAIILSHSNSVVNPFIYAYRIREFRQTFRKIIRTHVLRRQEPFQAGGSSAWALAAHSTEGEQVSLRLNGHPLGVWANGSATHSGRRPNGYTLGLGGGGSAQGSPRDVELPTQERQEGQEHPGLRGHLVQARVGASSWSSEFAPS

In the case of `Nc1nc(-c2ccccc2)nc2nc(-c3ccco3)nn12` [Example 1, 7-amino-2-(2-furyl)-5-phenyl-[1,2,4]-triazolo[1,5-a][1,3,5]triazine], the Kb in test [1] was 39.8 nM. This compound gave an IC50 on A2 Adenosine receptor of approximately 25.1 nM.
For the compound `Cn1c(=O)c2[nH]cnc2n(C)c1=O` [1,3-dimethylxanthine], the pA2 entry in test [2] is “about 5”. For the same compound, the “inhibition of vasodilation during skeletal muscle contraction” value in test [3] is given as “significant inhibition”.
